Data as given in patent publication US11078467B2 (University of Florida Research Foundation, Incorporated, priority 2016, dated 2021).
Entries after “also recorded” stand apart in the source; their conditions may differ. Like-named read-outs stand apart in the source and are kept apart here.

Experiments:
TB14 [1] = target: T1, TB14 (UniProt C9ZDC6); assay: Binding affinities of Trp analogues toward TB14 (spectral shift titration); conditions: 1.5 μM enzyme, 25 mM Tris-HCl, pH 8.0
T1 construct: 14-aa linker […]; BM3R, reductase domain of P450BM3 (CYP102A1), fusion partner after the linker; inferred from Ni-NTA purification and the pET28b vector; made in house; host or cells: E. coli BL21 (DE3)-GOLD, pET28b-TxtE-BM3R
Protocol: (§1) The ferric heme of enzymes was then saturated with carbon monoxide (Airgas) through bubbling and the spectra of the saturated enzyme solutions were recorded. Immediately, sodium dithionite solution (30 μL, 0.5 M) was added to reduce ferric ion, and reduced spectra were taken subsequently. CO reduced difference spectra of all enzymes were created by subtracting the CO binding spectra from the reduced spectra. Data were further analyzed by Excel. […] Not more than 10 μl of substrate stock solutions prepared in the above buffer were added to the sample cuvette with an interval of 0.5 μl, and the spectra were recorded from 300 nm to 500 nm each time. The equal volume of buffer was added to the reference cuvette. The changes in absorbance (AA) were determined by subtracting the absorbance at ˜420 nm from that at ˜390 nm. Data were then fitted to the equation of ΔA=ΔAmax[L]/(Kd+[L]) using GraphPad Prism 4.

TxtE [2] = target: T2, TxtE (Streptomyces scabiei, UniProt C9ZDC6); assay: biochemical; assay type: binding, S. scabies; design: inferred from Ni-NTA purification and the pET28b vector; made in house; host or cells: E. coli BL21 (DE3)-GOLD, pET28b; conditions: for Interaction with TxtE in spectroscopic analysis (in words): Type I spectral shift
Protocol: as §1

TB14 [3] = target: T3, TB14 (UniProt C9ZDC6+P14779); assay: Nitration of Trp and its analogues by TB14 (45 min, HPLC); assay type: biochemical; conditions: FIG. 8; for Nitration activity of TB14 toward the substrate (in words): 0.5 mM substrate, 45 min
T3 construct: 14-aa linker […]; BM3R, reductase domain of P450BM3 (CYP102A1), fusion partner after the linker; inferred from Ni-NTA purification and the pET28b vector; made in house; host or cells: E. coli BL21 (DE3)-GOLD, pET28b-TxtE-BM3R
Protocol: (§2) The reactions were prepared and then incubated at 20° C., 300 rpm for 45 minutes. All experiments were repeated at least three times.
(§3) After centrifugation, 10 μl solutions were analyzed by HPLC. […] All reactions were independently repeated at least three times. […] All experiments were performed at least in triplicate.

TxtE [4] = target: T2, TxtE; assay type: biochemical, S. scabies; design: inferred from Ni-NTA purification and the pET28b vector; made in house; conditions: 0.5 mM substrate, 45 min, FIG. 8
Protocol: as §2, §3

TB14 [5] = target: T3, TB14; assay: Binding affinities of Trp analogues toward TB14 (spectral shift titration); conditions: for Kd: read-out: TB14 Kd, 1.5 μM enzyme, 25 mM Tris-HCl, pH 8.0; for Interaction with TB14 in spectroscopic analysis (in words): Type I spectral shift
Protocol: as §1

[6] = read-out: TxtE Kd, 1.5 μM enzyme, 25 mM Tris-HCl, pH 8.0

In the case of `N[C@@H](Cc1c[nH]c2ccc(O)cc12)C(=O)O` [Example 5-OH-L-Trp, 5-OH-L-Trp], the Kd (TB14 [1]) is reported as 453 ± 15.5 µM and the Kd (TxtE [2]) is reported as 341 ± 26.4 µM.
With `N[C@@H](Cc1c[nH]c2ccccc12)C(=O)O` [Trp] the “Nitration activity of TB14 toward the substrate (in words)” value (TB14 [3]) was “nitrated” and the “Nitration activity of TxtE toward the substrate (in words)” value (TxtE [4]) was “nitrated”.
`N[C@@H](Cc1c[nH]c2ccccc12)C(=O)O` [L-Trp, L-tryptophan] gave a Kd (TB14 [1]) of 17.4 ± 0.95 µM and a Kd (TxtE [2]; [6]) of 24.8 ± 1.11 µM.
Work on `NCCc1c[nH]c2ccc(O)cc12` [Serotonin] yielded a Kd (TB14 [5]) of 310 ± 38.5 µM and a Kd (TxtE [2]; [6]) of 322 ± 31.4 µM.
For `N[C@@H](Cc1c[nH]c2ccc(F)cc12)C(=O)O` [Example 5-F-L-Trp, 5-F-L-Trp], the Kd (TB14 [5]) was 77.5 ± 5.74 µM, the “Nitration activity of TB14 toward the substrate (in words)” value (TB14 [3]) was “good activity; also recorded: comparable to Trp” and the “Nitration activity of TxtE toward the substrate (in words)” value (TxtE [4]) was “good activity; also recorded: best substrate of TxtE”. For the same compound, the Kd (TxtE [2]; [6]) was 84.2 ± 4.37 µM.
`O=C(O)C(O)Cc1c[nH]c2ccccc12` (stereo not shown) [Indole-3-lactic acid] gave a Kd (TxtE [2]) greater than 7000 µM.
For `N[C@H](CO)Cc1c[nH]c2ccccc12` [L-tryptophanol], the Kd (TB14 [1]) was 280 ± 43.2 µM and the Kd (TxtE [2]) was 221 ± 32.4 µM.
In the case of `O=C(O)C(=O)Cc1c[nH]c2ccccc12` [Indole-3-pyruvic acid], the Kd (TB14 [5]) is reported as 478 ± 31.6 µM and the Kd (TxtE [2]; [6]) is reported as 386 ± 42.5 µM.
`N[C@@H](Cc1c[nH]c2ncccc12)C(=O)O` [7-Azatryptophan] showed a Kd (TB14 [1]) of 25.5 ± 0.58 µM and a Kd (TxtE [2]; [6]) of 16.8 ± 0.28 µM.
In the case of `c1ccc2[nH]ccc2c1` [indole], the “Interaction with TB14 in spectroscopic analysis (in words)” value (TB14 [5]) is reported as “no detectable level of interaction” and the “Interaction with TxtE in spectroscopic analysis (in words)” value (TxtE [2]) is reported as “no detectable level of interaction”.
Compound `NC(Cc1c[nH]c2cccc(F)c12)C(=O)O` (racemic) [Example 4-F-Trp, 4-F-DL-Trp] has a Kd (TB14 [5]) of 175 ± 12.9 µM and a Kd (TxtE [2]; [6]) of 189 ± 11.1 µM.
Compound `COc1ccc2[nH]cc(CC(N)C(=O)O)c2c1` (racemic) [Example 5-MeO-Trp, 5-MeO-DL-Trp] has a Kd (TB14 [1]) of 25.8 ± 1.84 µM and a Kd (TxtE [2]) of 29.1 ± 1.16 µM.
Work on `O=C(O)C1Cc2c([nH]c3ccccc23)CN1` (stereo not drawn) [2,3,4,9-Tetrahydro-1H-β-carboline-3-carboxynate] yielded a Kd (TB14 [1]) of 731 ± 86 µM and a Kd (TxtE [2]) of 579 ± 44.4 µM.
`Cc1cccc2[nH]cc(CC(N)C(=O)O)c12` (racemic) [Example 4-Me-Tr, 4-Me-DL-Tryptophan] gave a Kd (TB14 [1]) of 13.5 ± 0.98 µM and a Kd (TxtE [2]) of 9.58 ± 0.36 µM.
`CC(N)(Cc1c[nH]c2ccccc12)C(=O)O` (racemic) [α-Me-Trp, α-Me-DL-Trp] gave a Kd (TB14 [1]) of 94.7 ± 8.52 µM and a Kd (TxtE [2]) of 100 ± 4.3 µM.
`O=C(O)c1c[nH]c2ccccc12` [Indole-3-carboxylic acid] showed a Kd (TxtE [2]) greater than 9000 µM.
Work on `Cc1cccc2c(CC(N)C(=O)O)c[nH]c12` (racemic) [Example 7-Me-Trp, 7-Me-DL-Trp] yielded a Kd (TB14 [1]) of 10.6 ± 0.75 µM and a Kd (TxtE [2]) of 12.9 ± 0.99 µM.
`N[C@@H](Cc1c[nH]c2cc(F)ccc12)C(=O)O` (racemic) [Example 6-F-Trp, 6-F-DL-Trp] was tested, and the Kd (TB14 [5]) was 65.3 ± 4.49 µM, the “Nitration activity of TB14 toward the substrate (in words)” value (TB14 [3]) was “good activity” and the “Nitration activity of TxtE toward the substrate (in words)” value (TxtE [4]) was “good activity”. It also gave a Kd (TxtE [2]; [6]) of 73.4 ± 6.06 µM.
`N[C@H](Cc1c[nH]c2ccccc12)C(=O)O` [D-Trp] gave a Kd (TB14 [1]) of 470 ± 25.3 µM and a Kd (TxtE [2]) of 432 ± 17.2 µM.
With `Cc1cccc2[nH]cc(CC(N)C(=O)O)c12` (racemic) [Example 4-Me-DL-Trp] the “Interaction with TB14 in spectroscopic analysis (in words)” value (TB14 [5]) was “more tightly than 4-F-DL-Trp”, the “Nitration activity of TB14 toward the substrate (in words)” value (TB14 [3]) was “good activity” and the “Nitration by TB14 favoured over 4-F-DL-Trp” value (TB14 [3]) was “about 8 times”. For the same compound, the “Nitration activity of TxtE toward the substrate (in words)” value (TxtE [4]) was “good activity” and the “Interaction with TxtE in spectroscopic analysis (in words)” value (TxtE [2]) was “more tightly than 4-F-DL-Trp”.
For `Cc1ccc2[nH]cc(CC(N)C(=O)O)c2c1` (racemic) [Example 5-Me-Trp, 5-Me-DL-Trp], the Kd (TB14 [1]) was 29.9 ± 1.03 µM, the “Nitration activity of TB14 toward the substrate (in words)” value (TB14 [3]) was “good activity” and the “Nitration activity of TxtE toward the substrate (in words)” value (TxtE [4]) was “good activity”. The Kd (TxtE [2]) was 34.7 ± 0.99 µM.
`O=C(O)Cc1c[nH]c2ccccc12` [3-Indoleacetic acid] showed a Kd (TxtE [2]) greater than 17000 µM.
`NCCc1c[nH]c2ccccc12` [Tryptamine] gave a Kd (TB14 [5]) of 59.8 ± 7.88 µM and a Kd (TxtE [2]; [6]) of 68.4 ± 6.19 µM.
